According to patent publication US7144889B2, “Triarylimidazoles” (Hoffman-La Roche Inc., priority 2003, dated 2006):

These compounds were tested against T1, c-met (Homo sapiens, UniProt P08581) (assay: C-met Autoactivation Kinase Assay (AKA), ELISA type assay on HT29 cell lysate). Conditions: phosphorylation of c-met from HT29 lysate, 40 μM ATP.
T1 construct: endogenous in cells; host or cells: HT29 (ATCC HTB-38), human colon adenocarcinoma
Format: biochemical
Text: C-met Autoactivation Kinase Assay (AKA)
C-met is a typical tyrosine kinase which is involved in metastasis, proliferation/apoptosis and angiogenesis of tumors. The assay is an ELISA type assay measuring the phosphorylation of c-met using a phospho-tyrosine specific antibody.
Cell lysate of human colon adenocarcinoma HT29 known for its high content of c-met is bound to the wells of a microtiterplate (MTP) via an anti-hHGF receptor antibody (anti-hHGFR). ATP-phosphorylation of c-met is detected in presence or absence of the test compounds by using a phospho-tyrosine mouse IgG and a POD labeled goat anti-mouse IgG detection system. Using the classical POD substrate TMB, an absorption at 450 nm/620 nm is used to calculate enzymatic activity.
Plates: 96-well polystyrene plates (NUNC) streptavidin-coated microtiter plates Cell line/Lysate: HT29 (ATCC HTB-38), human colon adenocarcinoma (confluence: 2.5×10^5 cells/cm^2) are washed with PBS and incubated with Lysis buffer for 10 min on ice. Supernatent is collected and diluted with TBS. Lysate is shockfrozen in liquid nitrogen and stored at −80° C.)
Reagents (all working solutions are kept at 4° C., unless stated otherwise): • anti-hHGFR detection stock solution: 50 μg/ml (R&D Systems, Cat.No. BAF 358) antibody final conc.: 1 μg/ml • p-Tyr (PY99) mouse stock solution: 200 μg/ml (Santa Cruz Biotechnology, monoclonal IgG2b Cat.No. SC-7020) final conc.: 0.2 μg/ml • goat-anti-mouse IgG: 2 ml (BIO RAD, Cat.No. 170–6516) • (H+L)-HRP Conjugate; final conc.: 1:2000 • Blocking Reagent: Roche Diagnostics GmbH, Cat.No.1 112589 for ELISA diluted 1:10 in TBS • ATP: Adenosine-5′-triphosphate, stock solution 10 mM, stock solution 10 mM (Roche Diagnostics GmbH, Cat.No. 127531) final conc.: 40 μM • TBS: Tris-buffered saline, 50 mM TRIS pH 7.5 (Roche Diagnostics GmbH, Cat.No. 708976), 150 mM NaCl (SIGMA, Cat.No. S-3014) • Wash buffer TBS-T: Tris-buffered saline, 50 mM TRIS pH 7.5 150 mM NaCl, containing 0.5% Tween20 • Kinase buffer: Tris-buffered saline, 50 mM TRIS pH 7.5, 100 mM NaCl, 60 mM MgCl2 (SIGMA Chemical Company, Cat.No. M-1028) • Lysis buffer: 50 mM TRIS pH 7.5 containing 1% Nonidet P40 (Roche Diagnostics GmbH, Cat.No.1754599) 0.5 % Deoxycholic acid (SIGMA Chemical Company, Cat.No. D-6750) final conc.: 1 mM 1 mM PMSF stock solution 70 mM (Roche Diagnostics GmbH, Cat.No.837091 40 μl/ml Complete (Roche Diagnostics GmbH, Cat.No. 1836145) Final conc.: 40 μ/ml • TMB: Tetramethylbenzidine (Intergen Company, Cat.No. 91000) • Samples: 10 mM in DMSO (stored at −20° C.), thawed at room temperature Procedure: […]

T1 sequence (P08581 25-1390): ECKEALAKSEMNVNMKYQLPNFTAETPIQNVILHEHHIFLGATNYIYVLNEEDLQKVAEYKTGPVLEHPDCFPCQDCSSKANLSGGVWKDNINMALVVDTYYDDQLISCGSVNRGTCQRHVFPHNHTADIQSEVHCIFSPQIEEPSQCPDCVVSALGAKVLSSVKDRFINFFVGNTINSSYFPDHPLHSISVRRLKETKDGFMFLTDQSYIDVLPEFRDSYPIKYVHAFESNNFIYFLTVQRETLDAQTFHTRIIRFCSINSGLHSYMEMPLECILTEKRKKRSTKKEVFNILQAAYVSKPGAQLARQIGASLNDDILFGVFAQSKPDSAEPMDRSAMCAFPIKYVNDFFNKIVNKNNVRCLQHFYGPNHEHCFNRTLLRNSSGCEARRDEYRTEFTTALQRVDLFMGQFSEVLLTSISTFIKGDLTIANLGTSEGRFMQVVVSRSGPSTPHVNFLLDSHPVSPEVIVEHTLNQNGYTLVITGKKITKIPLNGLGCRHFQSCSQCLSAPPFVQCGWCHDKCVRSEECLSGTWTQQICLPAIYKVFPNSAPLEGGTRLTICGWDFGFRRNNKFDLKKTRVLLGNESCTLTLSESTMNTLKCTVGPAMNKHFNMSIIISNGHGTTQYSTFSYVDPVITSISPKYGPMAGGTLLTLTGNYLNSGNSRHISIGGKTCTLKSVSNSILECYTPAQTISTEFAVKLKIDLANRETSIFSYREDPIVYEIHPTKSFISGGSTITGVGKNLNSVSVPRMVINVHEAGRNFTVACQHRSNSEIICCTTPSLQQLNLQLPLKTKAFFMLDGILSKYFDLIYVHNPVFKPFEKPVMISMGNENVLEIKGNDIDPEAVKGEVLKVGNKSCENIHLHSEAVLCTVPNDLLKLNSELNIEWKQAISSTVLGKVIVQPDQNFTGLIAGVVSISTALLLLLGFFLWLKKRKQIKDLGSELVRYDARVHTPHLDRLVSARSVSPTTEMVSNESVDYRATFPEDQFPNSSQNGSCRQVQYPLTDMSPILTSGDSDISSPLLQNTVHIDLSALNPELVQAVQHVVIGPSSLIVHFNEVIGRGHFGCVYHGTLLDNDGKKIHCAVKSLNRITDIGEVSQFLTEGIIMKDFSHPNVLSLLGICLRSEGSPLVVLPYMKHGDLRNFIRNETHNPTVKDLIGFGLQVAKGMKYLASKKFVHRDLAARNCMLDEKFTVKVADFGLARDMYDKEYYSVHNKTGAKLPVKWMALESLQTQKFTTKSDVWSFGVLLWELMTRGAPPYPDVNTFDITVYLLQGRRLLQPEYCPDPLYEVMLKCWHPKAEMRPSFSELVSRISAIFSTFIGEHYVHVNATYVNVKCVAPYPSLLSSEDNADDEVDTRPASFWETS

Row | IC50 | SMILES
1 | 23 nM | OCCCNc1nccc(-c2[nH]c(-c3c(Cl)cncc3Cl)nc2-c2cccc(OCc3ccccc3)c2)n1 [Example H4, 2-(3,5-dichloropyridin-4-yl)-4-(3-benzyloxyphenyl)-5-(2-[3-hydroxypropyl-amino]pyrimidin-4-yl)-N-1H-imidazole]
2 | 32 nM | OCCCNc1nccc(-c2[nH]c(-c3c(Cl)cc(OCCO)cc3Cl)nc2-c2cccc(OCc3cccnc3)c2)n1 [Example H2, 2-(2,6-dichloro-4-[2-hydroxyethoxy]phenyl)-4-(3-(3-pyridinylmethyloxy)phenyl)-5-(2-[3-hydroxypropylamino]pyrimidin-4-yl)-N-1H-imidazole]
3 | 54 nM | OCCCNc1nccc(-c2[nH]c(-c3c(Cl)cc(OCCO)cc3Cl)nc2-c2cccc(OCc3ccncc3)c2)n1 [Example H3, 2-(2,6-dichloro-4-[2-hydroxyethoxy]phenyl)-4-(3-(4-pyridinylmethyloxy)phenyl)-5-(2-[3-hydroxypropylamino]pyrimidin-4-yl)-N-1H-imidazole]
4 | 22 nM | OCCCNc1nccc(-c2[nH]c(-c3c(Cl)cc(OCCO)cc3Cl)nc2-c2cccc(OCc3ccccn3)c2)n1 [Example H1, 2-(2,6-dichloro-4-[2-hydroxyethoxy]phenyl)-4-(3-(2-pyridinylmethyloxy)phenyl)-5-(2-[3-hydroxypropylamino]pyrimidin-4-yl)-N-1H-imidazole]
